What was measured:
[1] = HPLC assay, n-butylamine reactivity against a sulfonyl probe mixture; assay type: physicochemical; details: TMG 3.3 equivalents
Description: The following reagents were prepared and kept at 0° C. prior to use: 0.1 M solution of caffeine in acetonitrile (ACN), 1.0 M solution of n-butylamine, p-cresol, tetramethylguanidine (TMG), acetic acid in ACN, and 10 mM solution of the probes in a mixture of DMF-ACN (v/v=10:90) are made.
(ii) n-Butylamine reactivity against a probe mixture: Reactivity of sulfonyl probes against n-butylamine (3.3 eq) was performed as described above except the amount of TMG was fixed at 3.3 eq.

[2] = test system: HEK293T soluble proteomes; assay: LC-MS chemical proteomics of probe-modified sites in cell proteomes; assay type: binding, human
[3] = HPLC reactivity assay with glutathione (GSH stability); assay type: physicochemical; details: 5×GSH, basic conditions (TMG)
Description: Glutathione (GSH) adduction to compounds is a mechanism of metabolism for compounds administered to animals and humans. Accordingly, an HPLC reactivity assay^72 was performed to evaluate whether sulfonyl-triazoles (HHS-475) react with GSH. HHS-475 (see Example 1) was used as an exemplary SuTEx compound. Initially, the HPLC assay was used to monitor the rapid reaction of HHS-475 with the model nucleophile p-cresol (as a mimic of the tyrosine side chain) under basic conditions (TMG). […] The 5×GSH was used because GSH is typically found at high concentrations in vivo.

[4] = test system: HEK293T, Jurkat cells; assay: Live cell chemical proteomic profiling with SuTEx probes; assay type: cell-based, human; details: 100 μM, 2 hr, 37° C.; membrane and soluble fractions; both probes
Description: Cells grown to ˜90% confluency in 10 cm plates were treated with DMSO vehicle or sulfonyl-triazole probe (10 μL of 1000×DMSO stock) in serum-free media for the indicated concentrations and times at 37° C. with 5% CO2. After treatment, cells were washed with cold PBS twice before harvesting and preparation for gel-based chemical proteomic evaluation as described above. For LC-MS studies, protein concentrations were normalized to 2.3 mg/mL and 432 μL (for 1 mg final protein amount) were used for sample preparation as detailed below.
Proteomes were diluted to 2.3 mg/mL in PBS and sample aliquots (432 μL) were treated with sulfonyl-triazole or -fluoride probes at the indicated concentrations (5 μL, 100× stock in DMSO), mixed gently and incubated for 1 h at room temperature. Probe-modified proteomes were subjected to CuAAC conjugation to desthiobiotin-PEG3-azide (10 μL of 10 mM stock in DMSO; final concentration of 200 μM) using TCEP (10 μL of fresh 50 mM stock in water; 1 mM final concentration), TBTA ligand (33 μL of a 1.7 mM 4:1 t-butanol/DMSO stock, 100 μM final concentration), and CuSO4 (10 μL of 50 mM stock, 1 mM final concentration). Samples were mixed by vortexing and then incubated for 1 h at room temperature. Excess reagents were removed by chloroform-methanol extraction as previously described^51. […]

- reaction with GSH [3]: negligible reaction
SMILES: C#CCNC(=O)c1ccc(S(=O)(=O)n2cncn2)cc1 [HHS-475, 4-((1H-1,2,4-Triazol-1-yl)sulfonyl)-N-(prop-2-yn-1-yl)benzamide]
- time to complete reaction with n-butylamine [1]: 6 h
- unique-modified tyrosine sites among 1,2,4-SuTEx probes ([2]; FIG. 4D): 391 sites
- tyrosine specificity, Y/K ratio of modified sites ([2]; LC-MS chemical proteomics, FIG. 4A): 2.8
- distinct tyrosine sites measured in live cell studies, in total per cell line [4]: ~3,500 sites

Source: patent US12366579B2, “Sulfur-heterocycle exchange chemistry and uses thereof” (University of Virginia Patent Foundation, priority 2019, dated 2025)
